Source: patent publication US9884839B2, “Inhibitors of 17Beta-hydroxysteroid dehydrogenases type 1 and type 2” (ElexoPharm GmbH, priority 2014, dated 2018)
Like-named read-outs stand apart in the source and are kept apart here.

Key:
Assay type in all cases: biochemical
human 17β-HSD1 = target: T1, human 17β-HSD1 (Homo sapiens, UniProt P14061); assay: Inhibition of human 17β-HSD1 (conversion of [3H]-E1 to E2, HPLC radioflow detection); settings: for inhibition at 0.01 µM: read-out: % inhibition h17β-HSD1 @ 10 nM; for inhibition at 1 µM: read-out: % inhibition h17β-HSD1 @ 1 μM; for IC50: read-out: IC50 [nM] h17β-HSD1
T1 construct: For the partial purification of 17β-HSD1, the cytosolic fraction was precipitated with ammonium sulfate; from tissue; host or cells: human placenta, cytosolic fraction, ammonium sulfate precipitate
T1 sequence (P14061 1-328): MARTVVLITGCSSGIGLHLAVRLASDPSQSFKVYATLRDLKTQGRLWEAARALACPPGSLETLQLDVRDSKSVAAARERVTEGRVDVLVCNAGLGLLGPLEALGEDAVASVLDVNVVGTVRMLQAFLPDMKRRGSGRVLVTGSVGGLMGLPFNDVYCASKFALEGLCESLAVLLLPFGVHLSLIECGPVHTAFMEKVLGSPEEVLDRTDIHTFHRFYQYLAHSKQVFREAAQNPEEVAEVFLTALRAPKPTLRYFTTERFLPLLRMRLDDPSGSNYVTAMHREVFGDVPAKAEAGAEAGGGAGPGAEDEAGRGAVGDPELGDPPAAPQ

human 17β-HSD2 = target: T2, human 17β-HSD2 (Homo sapiens, UniProt P37059); assay: Inhibition of human 17β-HSD2 (conversion of [3H]-E2 to E1); settings: for inhibition at 0.01 µM: read-out: % inhibition h17β-HSD2 @ 10 nM; for IC50: read-out: IC50 [nM] h17β-HSD2
T2 construct: 17β-HSD2 was obtained from the microsomal fraction; from tissue; host or cells: human placenta, microsomal fraction
T2 sequence (P37059 1-387): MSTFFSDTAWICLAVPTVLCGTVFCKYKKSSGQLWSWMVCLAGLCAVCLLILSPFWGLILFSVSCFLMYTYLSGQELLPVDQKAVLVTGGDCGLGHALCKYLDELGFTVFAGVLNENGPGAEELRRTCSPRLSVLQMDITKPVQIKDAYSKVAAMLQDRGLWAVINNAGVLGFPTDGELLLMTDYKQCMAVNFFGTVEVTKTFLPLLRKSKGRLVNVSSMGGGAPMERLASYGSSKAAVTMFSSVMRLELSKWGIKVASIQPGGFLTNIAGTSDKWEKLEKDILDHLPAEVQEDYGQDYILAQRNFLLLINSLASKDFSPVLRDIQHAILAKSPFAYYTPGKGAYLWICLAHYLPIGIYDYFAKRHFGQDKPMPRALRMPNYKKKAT
Experimental: Fresh human placenta was homogenized, and cytosolic fraction and microsomes were separated by differential centrifugation at 1,000 g, 10,000 g and 150,000 g.
(§1) The conversion rate was calculated after analysis of the resulting chromatograms according to the following equation: % conversion=[% E1/(% E1+% E2)]×100

mouse 17β-HSD2 = target: T3, mouse 17β-HSD2 (Mus musculus, UniProt P51658); assay: Inhibition of mouse 17β-HSD2 (liver microsomal fraction); settings: for inhibition at 0.05 µM: read-out: % inhibition m17β-HSD2 @ 50 nM
T3 construct: The pellet fractions containing the microsomal 17β-HSD2 were used for the determination of E1 formation; from tissue; host or cells: mouse liver, microsomal fraction
T3 sequence (P51658 1-381): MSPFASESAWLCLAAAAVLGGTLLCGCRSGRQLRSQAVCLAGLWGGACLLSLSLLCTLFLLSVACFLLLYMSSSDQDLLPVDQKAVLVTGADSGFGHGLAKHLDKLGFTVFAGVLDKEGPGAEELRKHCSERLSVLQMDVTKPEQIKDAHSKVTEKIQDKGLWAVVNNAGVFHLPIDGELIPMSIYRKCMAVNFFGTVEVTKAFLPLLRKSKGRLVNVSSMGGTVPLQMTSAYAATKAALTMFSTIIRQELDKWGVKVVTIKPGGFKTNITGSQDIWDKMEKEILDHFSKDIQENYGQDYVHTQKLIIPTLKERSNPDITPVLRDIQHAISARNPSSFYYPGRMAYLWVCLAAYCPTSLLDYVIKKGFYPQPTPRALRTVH
Experimental: Microsomal 17β-HSD2 fractions were obtained from mouse or rat liver. Fresh liver tissues were processed as described for the human placental 17β-HSD2 preparation. The pellet fractions containing the microsomal 17β-HSD2 were used for the determination of E1 formation.
as §1

[1] = human placental cytosolic enzyme, E1 500 nM, NADH, Tables 1, 4-11

Row | SMILES | inhibition at 0.01 µM (human 17β-HSD1) | inhibition at 0.01 µM (human 17β-HSD2) | inhibition at 0.05 µM (mouse 17β-HSD2) | other results
1 | COc1c(Cl)cc(-c2ccc(C(=O)c3c(Cl)ccc(O)c3F)s2)cc1Cl [Compound 77, (6-Chloro-2-fluoro-3-hydroxyphenyl)(5-(3,5-dichloro-4-methoxyphenyl)thiophen-2-yl)methanone] | 100% | 45% |  | 
2 | COc1ccc(-c2ccc(C(=O)c3cc(F)c(F)c(O)c3F)s2)cc1N [Compound 60, (5-(3-Amino-4-methoxyphenyl)thiophen-2-yl)(2,4,5-trifluoro-3-hydroxyphenyl)methanone] | 13% | 51% | 23% | 
3 | O=C(c1ccc(-c2ccccc2)s1)c1cc(F)c(F)c(O)c1F [Compound 56, (5-Phenylthiophen-2-yl)(2,4,5-trifluoro-3-hydroxyphenyl)methanone] | 71% | 93% |  | 
4 | Nc1cccc(-c2ccc(C(=O)c3cccc(O)c3)s2)c1 [F, reference compound] |  |  |  | inhibition at 1 µM (human 17β-HSD1): 77%; inhibition at 1 µM (human 17β-HSD2; read-out: IC50 [nM] or % inhibition h17β-HSD1 (second column so headed, Table 6): % @ 1 μM): 68%
5 | Cc1cc(-c2ccc(C(=O)c3c(F)ccc(O)c3F)s2)cc(Cl)c1O [Compound 27, [5-(3-Chloro-4-hydroxy-5-methyl-phenyl)-thiophen-2-yl]-(2,6-difluoro-3-hydroxy-phenyl)-methanone] |  |  |  | IC50 (human 17β-HSD1): 0.2 nM
6 | CC(=O)Nc1cccc(-c2ccc(C(=O)c3cc(F)c(F)c(O)c3F)s2)c1 [Compound 54, N-(3-(5-(2,4,5-Trifluoro-3-hydroxybenzoyl)thiophen-2-yl)phenyl)acetamide] | 31% | 89% | 30% | 
7 | CC(C)Oc1ccc(-c2ccc(C(=O)c3c(F)ccc(O)c3F)s2)cc1C#N [Compound 18, 5-[5-(2,6-Difluoro-3-hydroxy-benzoyl)-thiophen-2-yl]-2-isopropoxy-benzonitrile] |  |  |  | IC50 (human 17β-HSD1): 8 nM; IC50 (human 17β-HSD2): 19 nM
8 | Nc1cc(-c2ccc(C(=O)c3cc(F)c(F)c(O)c3F)s2)ccc1O [Compound 59, (5-(3-Amino-4-hydroxyphenyl)thiophen-2-yl)(2,4,5-trifluoro-3-hydroxyphenyl)methanone] | 48% | 68% | 27% | 
9 | NS(=O)(=O)c1ccc(-c2ccc(C(=O)c3c(F)ccc(O)c3F)s2)cc1 [Compound 75, 4-(5-(2,6-Difluoro-3-hydroxybenzoyl)thiophen-2-yl)benzenesulfonamide] | 18% | 54% | 10% | 
10 | Cc1ccc(C(=O)c2cc(F)c(F)c(O)c2F)s1 [Compound 73, (5-Methylthiophen-2-yl)(2,4,5-trifluoro-3-hydroxyphenyl)methanone] |  |  |  | inhibition at 0.1 µM (human 17β-HSD1; read-out: % inhibition h17β-HSD1 @ 100 nM, compound 100 nM): 9.1%
11 | Cc1cc(-c2ccc(C(=O)c3cc(F)c(F)c(O)c3C)s2)cc(C)c1O [Compound 72, (4,5-Difluoro-3-hydroxy-2-methylphenyl)(5-(4-hydroxy-3,5-dimethylphenyl)thiophen-2-yl)methanone] |  |  | 22% | IC50 (human 17β-HSD1; [1]): 44 nM; IC50 (human 17β-HSD2): 159 nM; % inhibition m17β-HSD2 @ 50 nM (mouse 17β-HSD2; 0.05 µM): 22% @ 50 nM
12 | COc1ccc(-c2ccc(C(=O)c3cc(F)c(F)c(O)c3F)s2)cc1 [Compound 51, (5-(4-Methoxyphenyl)thiophen-2-yl)(2,4,5-trifluoro-3-hydroxyphenyl)methanone] | 47% | 87% |  | 
13 | Nc1ccccc1-c1ccc(C(=O)c2cc(F)c(F)c(O)c2F)s1 [Compound 55, (5-(2-Aminophenyl)thiophen-2-yl)(2,4,5-trifluoro-3-hydroxyphenyl)methanone] | 12% | 68% | 23% | 
14 | O=C(c1ccc(-c2ccncc2)s1)c1c(F)ccc(O)c1F [Compound 8, (2,6-Difluoro-3-hydroxy-phenyl)-(5-pyridin-4-yl-thiophen-2-yl)-methanone] |  |  |  | inhibition at 1 µM (human 17β-HSD1): 27%; inhibition at 1 µM (human 17β-HSD2; read-out: % inhibition h17β-HSD2 @ 1 μM): 49%
15 | O=C(c1ccc(-c2ccc3cccnc3c2)s1)c1cc(F)c(F)c(O)c1F [Compound 66, (5-(Quinolin-7-yl)thiophen-2-yl)(2,4,5-trifluoro-3-hydroxyphenyl)methanone] | 22% | 83% |  | 
16 | CC(=O)Nc1ccc(-c2ccc(C(=O)c3cc(F)c(F)c(O)c3F)s2)cc1 [Compound 64, N-(4-(5-(2,4,5-trifluoro-3-hydroxybenzoyl)thiophen-2-yl)phenyl)acetamide] | 0% | 62% | 28% | 
17 | NS(=O)(=O)c1cccc(-c2ccc(C(=O)c3c(F)ccc(O)c3F)s2)c1 [Compound 76, 3-(5-(2,6-Difluoro-3-hydroxybenzoyl)thiophen-2-yl)benzenesulfonamide] | 34% | 26% | 1.8% | 
18 | O=C(c1ccc(-c2cccc(O)c2)s1)c1cc(F)c(F)c(O)c1F [Compound 69, (5-(3-Hydroxyphenyl)thiophen-2-yl)(2,4,5-trifluoro-3-hydroxyphenyl)methanone] | 72% | 95% | 32% | 
19 | O=C(c1cccc(O)c1)c1ccc(-c2ccc(F)cc2F)s1 [A, reference compound] |  |  |  | inhibition at 1 µM (human 17β-HSD1): 32%
20 | COc1ccccc1-c1ccc(C(=O)c2cc(F)c(F)c(O)c2F)s1 [Compound 53, (5-(2-Methoxyphenyl)thiophen-2-yl)(2,4,5-trifluoro-3-hydroxyphenyl)methanone] | 81% | 96% | 34% | 
21 | O=C(c1ccc(-c2ccc3[nH]ccc3c2)s1)c1cc(F)c(F)c(O)c1F [Compound 61, (5-(1H-Indol-5-yl)thiophen-2-yl)(2,4,5-trifluoro-3-hydroxyphenyl)methanone] | 48% | 68% | 60% | 
22 | O=C(c1ccc(-c2ccccc2O)s1)c1cc(F)c(F)c(O)c1F [Compound 70, (5-(2-Hydroxyphenyl)thiophen-2-yl)(2,4,5-trifluoro-3-hydroxyphenyl)methanone] | 19% | 100% |  | 
23 | NS(=O)(=O)Oc1ccc(-c2ccc(C(=O)c3cc(F)c(F)c(O)c3F)s2)cc1 [Compound 74, 4-(5-(2,4,5-Trifluoro-3-hydroxybenzoyl)thiophen-2-yl)phenyl sulfamate] | 20% | 72% |  | 
24 | O=C(c1ccc(-c2cccnc2)s1)c1cc(F)c(F)c(O)c1F [Compound 65, (5-(Pyridin-3-yl)thiophen-2-yl)(2,4,5-trifluoro-3-hydroxyphenyl)methanone] | 15% | 62% |  | 
25 | COc1c(C)cc(-c2ccc(C(=O)c3c(F)ccc(O)c3F)s2)cc1Cl [Compound 26, [5-(3-Chloro-4-methoxy-5-methyl-phenyl)-thiophen-2-yl]-(2,6-difluoro-3-hydroxy-phenyl)-methanone] |  |  |  | IC50 (human 17β-HSD1; [1]): 0.4 nM
26 | COc1c(Cl)cc(-c2ccc(C(=O)c3c(F)ccc(O)c3Cl)s2)cc1Cl [Compound 78, (2-Chloro-6-fluoro-3-hydroxyphenyl)(5-(3,5-dichloro-4-methoxyphenyl)thiophen-2-yl)methanone] | 41% | 54% | 76% | 
27 | Cc1ccc(-c2ccc(C(=O)c3cc(F)c(F)c(O)c3F)s2)cc1N [Compound 57, (5-(3-Amino-4-methylphenyl)thiophen-2-yl)(2,4,5-trifluoro-3-hydroxyphenyl)methanone] | 14% | 60% |  | 
28 | O=C(c1ccc(-c2ccc3[nH]cnc3c2)s1)c1cc(F)c(F)c(O)c1F [Compound 67, (5-(1H-Benzo[d]imidazol-5-yl)thiophen-2-yl)(2,4,5-trifluoro-3-hydroxyphenyl)methanone] | 30% | 86% |  | 
